This note sets out measurements from article PMC3639963, “A New Class of Small Molecule Inhibitor of BMP Signaling” (PLoS ONE, 2013).

Usually inhibition stands for the drop in the measured response relative to a control, in per cent.

Test in all cases: Nanosyn kinase profiling
Common to all, as to format: biochemical
Common to all, as to details: read-out: Percentage inhibition; for inhibition at 0.1 µM: 0.1 µM inhibitor; for inhibition at 1 µM: 1 µM inhibitor

One test concerns the target T1, PKCι (Homo sapiens, UniProt P41743).
T1 construct: purchased Nanosyn (enzymatic panel); SGC in-house recombinant human kinases (DSF panel); Invitrogen (ALK1-6)
T1 sequence (P41743 1-596): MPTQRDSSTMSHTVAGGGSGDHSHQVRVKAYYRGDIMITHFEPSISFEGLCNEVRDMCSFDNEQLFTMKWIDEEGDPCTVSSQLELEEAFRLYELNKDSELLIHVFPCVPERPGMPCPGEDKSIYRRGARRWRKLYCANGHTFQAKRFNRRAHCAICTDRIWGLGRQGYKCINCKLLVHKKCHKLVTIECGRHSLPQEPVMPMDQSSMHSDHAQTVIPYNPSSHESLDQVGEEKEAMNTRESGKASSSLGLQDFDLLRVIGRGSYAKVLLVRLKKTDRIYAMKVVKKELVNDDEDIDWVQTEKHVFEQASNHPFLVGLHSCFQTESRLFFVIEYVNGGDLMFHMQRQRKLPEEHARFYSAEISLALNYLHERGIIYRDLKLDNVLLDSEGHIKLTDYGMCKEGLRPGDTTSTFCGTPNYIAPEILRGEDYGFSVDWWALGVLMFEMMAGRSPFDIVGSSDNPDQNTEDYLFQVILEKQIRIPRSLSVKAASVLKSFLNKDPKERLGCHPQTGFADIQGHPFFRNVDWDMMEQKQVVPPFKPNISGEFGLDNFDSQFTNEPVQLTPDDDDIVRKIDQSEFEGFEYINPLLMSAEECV
The procedure, abridged: (§1)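 Percent inhibition of each kinase was measured with the inhibitor at 0.1 µM and at 1 µM, as part of a 200-kinase human selectivity panel.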

For another test, the target named is T2, HIPK1 (Homo sapiens, UniProt Q86Z02).
T2 construct: purchased Nanosyn (enzymatic panel); SGC in-house recombinant human kinases (DSF panel); Invitrogen (ALK1-6)
The gist of the method: as §1

A further test has as its target T3, SGK1 (Homo sapiens, UniProt O00141).
T3 construct: purchased Nanosyn (enzymatic panel); SGC in-house recombinant human kinases (DSF panel); Invitrogen (ALK1-6)
T3 sequence (O00141 1-431): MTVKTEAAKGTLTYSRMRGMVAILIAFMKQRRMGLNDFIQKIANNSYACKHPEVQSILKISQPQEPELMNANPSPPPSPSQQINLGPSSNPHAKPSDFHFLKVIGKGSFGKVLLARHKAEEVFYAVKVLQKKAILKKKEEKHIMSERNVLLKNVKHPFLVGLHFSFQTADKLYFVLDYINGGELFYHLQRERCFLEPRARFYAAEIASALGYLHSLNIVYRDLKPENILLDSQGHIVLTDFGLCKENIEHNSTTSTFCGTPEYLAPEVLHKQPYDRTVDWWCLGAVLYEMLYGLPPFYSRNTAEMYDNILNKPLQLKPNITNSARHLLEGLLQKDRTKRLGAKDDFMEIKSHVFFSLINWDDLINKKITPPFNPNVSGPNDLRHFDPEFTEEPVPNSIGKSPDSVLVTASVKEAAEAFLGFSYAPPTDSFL
The gist of the method: as §1

For another test, the target named is T4, PKCβ2 (Homo sapiens, UniProt P05771).
T4 construct: purchased Nanosyn (enzymatic panel); SGC in-house recombinant human kinases (DSF panel); Invitrogen (ALK1-6)
The gist of the method: as §1

Another test has as its target T5, TRKB (Homo sapiens, UniProt Q16620).
T5 construct: purchased Nanosyn (enzymatic panel); SGC in-house recombinant human kinases (DSF panel); Invitrogen (ALK1-6)
The procedure, abridged: as §1

The target of the next test is T6, PKCβ1 (Homo sapiens, UniProt P05771).
T6 construct: purchased Nanosyn (enzymatic panel); SGC in-house recombinant human kinases (DSF panel); Invitrogen (ALK1-6)
The gist of the method: as §1

Another test has as its target T7, CK1α (Homo sapiens, UniProt P48729).
T7 construct: purchased Nanosyn (enzymatic panel); SGC in-house recombinant human kinases (DSF panel); Invitrogen (ALK1-6)
The procedure, abridged:
as §1

A further test concerns the target T8, TBK1 (Homo sapiens, UniProt Q9UHD2).
T8 construct: purchased Nanosyn (enzymatic panel); SGC in-house recombinant human kinases (DSF panel); Invitrogen (ALK1-6)
T8 sequence (Q9UHD2 1-729): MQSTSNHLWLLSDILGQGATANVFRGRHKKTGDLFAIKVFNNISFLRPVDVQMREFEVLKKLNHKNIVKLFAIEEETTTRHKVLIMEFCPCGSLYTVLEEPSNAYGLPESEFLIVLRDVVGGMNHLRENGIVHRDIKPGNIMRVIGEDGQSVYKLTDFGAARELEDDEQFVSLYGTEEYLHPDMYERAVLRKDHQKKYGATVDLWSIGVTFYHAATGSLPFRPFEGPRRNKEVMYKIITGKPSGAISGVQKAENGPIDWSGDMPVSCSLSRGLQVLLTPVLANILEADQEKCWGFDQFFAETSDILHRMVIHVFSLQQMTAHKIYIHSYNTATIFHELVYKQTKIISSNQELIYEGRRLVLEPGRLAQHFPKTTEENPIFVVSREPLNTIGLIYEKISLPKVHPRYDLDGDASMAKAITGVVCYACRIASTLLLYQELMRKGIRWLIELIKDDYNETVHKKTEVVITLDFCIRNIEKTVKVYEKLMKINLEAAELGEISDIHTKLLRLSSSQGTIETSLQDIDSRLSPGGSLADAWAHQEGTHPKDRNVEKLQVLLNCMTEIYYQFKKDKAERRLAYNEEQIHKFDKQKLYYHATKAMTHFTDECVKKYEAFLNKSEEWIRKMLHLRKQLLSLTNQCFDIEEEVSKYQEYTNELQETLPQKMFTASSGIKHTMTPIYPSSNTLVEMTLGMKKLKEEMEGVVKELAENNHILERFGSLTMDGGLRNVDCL
The procedure, abridged: as §1

T2 sequence (Q86Z02 whole entry): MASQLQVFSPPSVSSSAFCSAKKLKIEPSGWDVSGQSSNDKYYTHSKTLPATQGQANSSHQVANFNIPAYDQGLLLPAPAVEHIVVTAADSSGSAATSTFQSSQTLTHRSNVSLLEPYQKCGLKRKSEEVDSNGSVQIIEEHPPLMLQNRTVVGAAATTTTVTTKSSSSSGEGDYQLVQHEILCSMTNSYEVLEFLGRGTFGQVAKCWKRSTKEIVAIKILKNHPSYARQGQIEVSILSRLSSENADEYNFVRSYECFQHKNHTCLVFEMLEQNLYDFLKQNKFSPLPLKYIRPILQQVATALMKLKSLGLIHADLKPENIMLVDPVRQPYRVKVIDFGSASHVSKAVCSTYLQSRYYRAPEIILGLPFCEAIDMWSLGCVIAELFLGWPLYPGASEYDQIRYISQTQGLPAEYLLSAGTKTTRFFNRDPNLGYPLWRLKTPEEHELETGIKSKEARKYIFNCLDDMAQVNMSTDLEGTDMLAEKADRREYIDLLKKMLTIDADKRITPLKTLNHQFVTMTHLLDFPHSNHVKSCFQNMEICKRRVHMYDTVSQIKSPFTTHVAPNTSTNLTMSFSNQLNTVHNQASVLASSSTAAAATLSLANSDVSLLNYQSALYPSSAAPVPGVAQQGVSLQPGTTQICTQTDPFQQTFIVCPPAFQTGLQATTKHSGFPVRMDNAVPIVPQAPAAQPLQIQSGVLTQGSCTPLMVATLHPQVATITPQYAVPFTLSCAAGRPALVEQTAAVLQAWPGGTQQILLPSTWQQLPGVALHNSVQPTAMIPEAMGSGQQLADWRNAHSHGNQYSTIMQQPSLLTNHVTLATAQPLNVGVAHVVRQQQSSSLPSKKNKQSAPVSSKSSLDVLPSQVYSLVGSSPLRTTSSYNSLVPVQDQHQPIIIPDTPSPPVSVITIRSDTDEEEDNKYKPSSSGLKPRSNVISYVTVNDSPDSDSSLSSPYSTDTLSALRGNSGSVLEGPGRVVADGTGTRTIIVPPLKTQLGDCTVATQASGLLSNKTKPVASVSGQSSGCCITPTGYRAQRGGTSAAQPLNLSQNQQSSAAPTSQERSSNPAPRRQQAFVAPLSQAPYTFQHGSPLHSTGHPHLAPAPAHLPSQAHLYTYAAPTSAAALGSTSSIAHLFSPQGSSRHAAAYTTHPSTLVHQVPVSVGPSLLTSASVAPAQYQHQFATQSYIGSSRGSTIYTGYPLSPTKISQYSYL
T7 sequence (P48729 whole entry): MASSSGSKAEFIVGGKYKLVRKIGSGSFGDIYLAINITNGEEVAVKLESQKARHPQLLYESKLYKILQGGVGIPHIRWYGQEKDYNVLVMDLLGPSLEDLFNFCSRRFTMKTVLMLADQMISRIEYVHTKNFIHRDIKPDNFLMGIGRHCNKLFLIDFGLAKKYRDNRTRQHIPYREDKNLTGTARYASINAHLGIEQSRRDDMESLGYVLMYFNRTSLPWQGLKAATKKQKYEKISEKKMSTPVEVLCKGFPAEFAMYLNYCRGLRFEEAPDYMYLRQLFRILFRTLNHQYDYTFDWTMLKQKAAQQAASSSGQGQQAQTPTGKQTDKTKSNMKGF
T5 sequence (Q16620 32-822): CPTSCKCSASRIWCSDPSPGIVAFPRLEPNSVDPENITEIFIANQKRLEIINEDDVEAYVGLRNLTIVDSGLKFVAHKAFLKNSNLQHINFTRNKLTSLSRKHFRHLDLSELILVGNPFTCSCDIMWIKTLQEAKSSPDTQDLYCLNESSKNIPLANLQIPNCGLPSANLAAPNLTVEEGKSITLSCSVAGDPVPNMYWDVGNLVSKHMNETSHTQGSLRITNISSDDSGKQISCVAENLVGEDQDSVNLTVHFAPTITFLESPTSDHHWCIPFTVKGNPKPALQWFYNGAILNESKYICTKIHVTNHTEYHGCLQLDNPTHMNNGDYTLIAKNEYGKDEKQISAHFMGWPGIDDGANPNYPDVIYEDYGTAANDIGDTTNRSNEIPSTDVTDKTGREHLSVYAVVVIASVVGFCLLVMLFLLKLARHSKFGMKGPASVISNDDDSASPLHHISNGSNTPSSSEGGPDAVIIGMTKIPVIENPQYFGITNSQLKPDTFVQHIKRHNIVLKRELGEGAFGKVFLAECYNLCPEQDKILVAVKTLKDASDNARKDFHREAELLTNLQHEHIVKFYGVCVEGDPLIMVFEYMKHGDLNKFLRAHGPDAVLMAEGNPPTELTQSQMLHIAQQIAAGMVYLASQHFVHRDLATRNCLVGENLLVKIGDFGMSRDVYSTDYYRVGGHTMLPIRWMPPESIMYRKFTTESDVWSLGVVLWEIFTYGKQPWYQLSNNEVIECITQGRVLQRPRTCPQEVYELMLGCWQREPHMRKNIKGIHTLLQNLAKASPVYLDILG
T6 sequence (P05771 whole entry): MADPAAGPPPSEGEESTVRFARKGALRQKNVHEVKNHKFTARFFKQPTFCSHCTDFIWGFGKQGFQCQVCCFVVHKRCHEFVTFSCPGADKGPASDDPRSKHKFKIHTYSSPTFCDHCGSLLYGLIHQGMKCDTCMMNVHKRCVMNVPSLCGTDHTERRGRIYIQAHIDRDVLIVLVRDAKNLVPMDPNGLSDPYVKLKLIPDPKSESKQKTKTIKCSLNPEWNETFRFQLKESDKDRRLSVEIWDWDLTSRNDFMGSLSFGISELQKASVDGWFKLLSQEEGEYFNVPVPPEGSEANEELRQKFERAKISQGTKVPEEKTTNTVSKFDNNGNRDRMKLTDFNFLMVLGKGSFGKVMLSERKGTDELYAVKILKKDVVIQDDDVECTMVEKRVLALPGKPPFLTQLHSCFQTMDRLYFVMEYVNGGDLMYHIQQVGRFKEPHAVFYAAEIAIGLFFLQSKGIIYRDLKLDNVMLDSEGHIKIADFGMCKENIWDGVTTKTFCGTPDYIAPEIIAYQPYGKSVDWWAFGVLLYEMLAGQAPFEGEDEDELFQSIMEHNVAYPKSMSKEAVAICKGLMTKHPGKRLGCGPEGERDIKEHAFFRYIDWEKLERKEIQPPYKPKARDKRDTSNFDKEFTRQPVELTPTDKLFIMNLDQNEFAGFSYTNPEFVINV
T4 sequence (P05771 1-673 isoform P05771-2): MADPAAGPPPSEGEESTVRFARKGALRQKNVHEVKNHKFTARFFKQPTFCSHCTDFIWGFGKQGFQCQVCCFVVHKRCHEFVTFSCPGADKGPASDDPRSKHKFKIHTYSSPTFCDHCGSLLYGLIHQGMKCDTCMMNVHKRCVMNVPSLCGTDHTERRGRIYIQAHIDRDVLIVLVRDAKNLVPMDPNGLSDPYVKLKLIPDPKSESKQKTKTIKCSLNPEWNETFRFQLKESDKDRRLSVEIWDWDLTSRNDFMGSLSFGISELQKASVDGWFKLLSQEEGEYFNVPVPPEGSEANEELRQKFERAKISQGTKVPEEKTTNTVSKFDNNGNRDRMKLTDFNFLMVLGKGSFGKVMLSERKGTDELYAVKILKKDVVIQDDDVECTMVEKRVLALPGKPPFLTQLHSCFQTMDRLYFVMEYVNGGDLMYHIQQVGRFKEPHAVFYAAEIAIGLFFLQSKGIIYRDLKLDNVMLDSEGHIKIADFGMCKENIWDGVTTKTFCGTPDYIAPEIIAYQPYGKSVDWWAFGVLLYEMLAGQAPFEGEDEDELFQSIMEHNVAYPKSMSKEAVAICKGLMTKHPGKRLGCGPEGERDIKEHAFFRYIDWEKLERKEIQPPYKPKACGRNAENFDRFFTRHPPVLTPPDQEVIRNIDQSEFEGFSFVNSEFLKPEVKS

`c1ccc2c(-c3cnn4cc(-c5ccc(N6CCNCC6)cc5)cnc34)ccnc2c1` [LDN-193189]: the inhibition at 0.1 µM at PKCι was 1.4%; at HIPK1, 0.6%; on SGK1, 1.1%; on PKCβ2, 1%; at TRKB, 0.8%; at PKCβ1 it was -2%. Moreover, the values for the inhibition at 0.1 µM on CK1α and at TBK1 were 14% and 4.5%, respectively. Moreover, the inhibition at 1 µM on PKCι was 1.5%; on HIPK1, 4.4%; at SGK1, 0.8%; on PKCβ2 it was 1.8%; at TRKB it was 3%; on PKCβ1 it was 0.2%. The results for the inhibition at 1 µM on CK1α and at TBK1 were 56% and 16%, respectively.

Regarding `COc1cc(-c2cc(-c3cccc(O)c3)cnc2N)cc(OC)c1OC` [K02288, 3-[6-amino-5-(3,4,5-trimethoxy-phenyl)-pyridin-3-yl]-phenol], the inhibition at 0.1 µM on PKCι is 0.3%; at HIPK1, 1.7%; at SGK1 it was 1.1%; at PKCβ2 it was 0%; on TRKB it was 1.8%; at PKCβ1, -1%. The results for the inhibition at 0.1 µM on CK1α and on TBK1 were 0% and 1.5%, respectively. The inhibition at 1 µM at PKCι is 1.6%; on HIPK1, 3.1%; on SGK1 it was -2%; on PKCβ2, -1%; at TRKB, 3.9%; on PKCβ1, 0.7%. The values for the inhibition at 1 µM on CK1α and on TBK1 were 7.2% and 3.7%, respectively.
